Results published in patent US8772500B2, “TRPV3 modulators” (AbbVie Inc., priority 2011, dated 2014).

Assays:
[1] = target: T1, human TRPV3 (Homo sapiens, UniProt Q8NET8); experiment: In vitro antagonism of recombinant human TRPV3 activation (FLIPR Tetra calcium assay, 2-APB as agonist); assay type: cell-based; details: HEK293 cells stably expressing human TRPV3; 2-APB 80 μM; range class; read-out: IC50 (reported range)
T1 construct: expressed in transfected cells
T1 sequence (Q8NET8 1-790): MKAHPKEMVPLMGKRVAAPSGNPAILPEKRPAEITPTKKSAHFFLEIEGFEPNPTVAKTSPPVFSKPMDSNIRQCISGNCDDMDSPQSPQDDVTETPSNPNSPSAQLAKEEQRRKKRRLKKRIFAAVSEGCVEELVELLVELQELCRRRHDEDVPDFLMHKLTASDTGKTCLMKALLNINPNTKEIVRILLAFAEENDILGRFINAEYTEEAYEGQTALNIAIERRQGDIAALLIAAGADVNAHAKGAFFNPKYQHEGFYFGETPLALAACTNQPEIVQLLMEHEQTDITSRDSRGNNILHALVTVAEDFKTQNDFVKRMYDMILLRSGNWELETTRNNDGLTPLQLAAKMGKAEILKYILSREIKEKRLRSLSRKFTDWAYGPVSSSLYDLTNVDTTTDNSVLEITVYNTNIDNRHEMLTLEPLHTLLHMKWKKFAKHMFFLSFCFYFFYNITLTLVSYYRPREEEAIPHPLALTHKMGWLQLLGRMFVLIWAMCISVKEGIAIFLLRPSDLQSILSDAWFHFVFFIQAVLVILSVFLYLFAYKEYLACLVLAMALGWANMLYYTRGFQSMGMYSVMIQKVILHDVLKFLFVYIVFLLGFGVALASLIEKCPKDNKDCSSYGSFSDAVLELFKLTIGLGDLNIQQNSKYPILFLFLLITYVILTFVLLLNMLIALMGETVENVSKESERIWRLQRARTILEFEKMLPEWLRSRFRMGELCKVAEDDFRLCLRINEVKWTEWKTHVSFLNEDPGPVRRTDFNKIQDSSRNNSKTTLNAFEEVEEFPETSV
In short: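 HEK293 cells stably expressing human TRPV3, loaded with Calcium-4 dye for 90-120 min; compound added 3 min before 2-APB at 80 μM (its EC80). Fluorescence (max minus min) over 10 min expressed as % of maximal 2-APB response without antagonist; IC50 mostly averaged from n≧2 runs.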

[2] = In vitro human microsomal stability assay; assay type: in vitro ADME
In short: (§1)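 Metabolic stability was measured in liver microsomes from Sprague-Dawley rat or from human. Incubations ran at 37 °C with NADPH as cofactor, and NADPH was also added to the time-zero samples.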

[3] = In vitro rat microsomal stability assay; assay type: in vitro ADME, rat (Sprague-Dawley)
In short: as §1

[4] = Sprague-Dawley, rat, 0.5 h, 0.5 μM, pH 7.4
[5] = 0.5 μM substrate, 0.25 mg/mL microsomal protein, pH 7.4, 37° C., NADPH, 30 minutes

Compound | IC50 [1] [µM] | HUMAN MICROSOMAL STABILITY (% REMAINING AFTER 30 MINUTES) ([2]; human, 0.5 h, 0.5 μM, pH 7.4) [%] | RAT MICROSOMAL STABILITY (% REMAINING AFTER 30 MINUTES) [3, 4] [%] | HUMAN MICROSOMAL STABILITY (% REMAINING AFTER 30 MINUTES) [2, 5] [%] | RAT MICROSOMAL STABILITY (% REMAINING AFTER 30 MINUTES) [3, 5] [%]
Nc1cccnc1C(O)C1(c2ccc(Cl)c(Cl)c2)CCC1 (stereo not drawn) [Example 130, (3-aminopyridin-2-yl) [1-(3,4-dichlorophenyl)cyclobutyl]methanol] | 1.1 to 5 | 4.0 | <0.01 | – | –
OC1CC(c2ccc(OC(F)(F)F)cc2)(C(O)c2ccccn2)C1 [Example 132, (trans)-3-[(S)-hydroxy(pyridin-2-yl)methyl]-3-[4-(trifluoromethoxy)phenyl]-cyclobutanol] | 5.1 to 20 | 81 | 72 | – | –
OC(c1ccccn1)C1(c2ccc(C(F)(F)F)cc2)CC(F)(F)C1 (stereo not drawn) [Example 133, {3,3-difluoro-1-[4-(trifluoromethyl)phenyl]cyclobutyl}(pyridin-2-yl)-methanol] | 0.05 to 0.5 | 73 | 61 | – | –
O[C@H](c1ccccn1)[C@@]1(c2ccc(Cl)c(Cl)c2)CCO1 [Example 135, (R)-[(2S)-2-(3,4-dichlorophenyl)oxetan-2-yl](pyridin-2-yl)methanol] | 0.501 to 1 | 33 | 3.4 | – | –
O[C@H](c1ccccn1)[C@]1(c2ccc(Cl)c(Cl)c2)CCO1 [Example 136, (R)-[(2R)-2-(3,4-dichlorophenyl)oxetan-2-yl](pyridin-2-yl)methanol] | 0.05 to 0.5 | 24 | 9.5 | – | –
OC(c1ccccn1)C1(c2ccc(C(F)(F)F)cn2)CC(F)(F)C1 (stereo not drawn) [Example 137, {3,3-difluoro-1-[5-(trifluoromethyl)pyridin-2-yl]cyclobutyl}(pyridin-2-yl)-methanol] | 1.1 to 5 | 77 | >85 | – | –
OC(c1ccccn1)C1(c2ccc(Cl)c(C(F)(F)F)c2)CC(F)(F)C1 (stereo not drawn) [Example 138, {1-[4-chloro-3-(trifluoromethyl)phenyl]-3,3-difluorocyclobutyl}(pyridin-2-yl)methanol] | 0.501 to 1 | 41 | 18 | – | –
OC(c1ccccn1)C1(c2ccc(F)c(C(F)(F)F)c2)CC(F)(F)C1 (stereo not drawn) [Example 139, {3,3-difluoro-1-[4-fluoro-3-(trifluoromethyl)phenyl]cyclobutyl}(pyridin-2-yl)methanol] | 0.501 to 1 | 41 | 26 | – | –
CN1CCC(c2ccc(OC(F)(F)F)cc2)(C(O)c2ccccn2)CC1 (stereo not drawn) [Example 145, {1-methyl-4-[4-(trifluoromethoxy)phenyl]piperidin-4-yl}(pyridin-2-yl)-methanol] | 1.1 to 5 | – | – | 68 | 42
CN1CCC(c2cccc(OC(F)(F)F)c2)(C(O)c2ccccn2)CC1 (stereo not drawn) [Example 146, {1-methyl-4-[3-(trifluoromethoxy)phenyl]piperidin-4-yl}(pyridin-2-yl)-methanol] | 5.1 to 20 | – | – | 84 | 8.9
OC(c1ccccn1)C1(c2cccc(OC(F)(F)F)c2)CCNCC1 (stereo not drawn) [Example 148, pyridin-2-yl{4-[3-(trifluoromethoxy)phenyl]piperidin-4-yl}methanol] | 1.1 to 5 | – | – | >85 | 53
CN1CCC(c2ccccc2OC(F)(F)F)(C(O)c2ccccn2)CC1 (stereo not drawn) [Example 149, {1-methyl-4-[2-(trifluoromethoxy)phenyl]piperidin-4-yl}(pyridin-2-yl)-methanol] | 5.1 to 20 | – | – | >85 | 62
COC1CC(c2ccc(Cl)c(Cl)c2)(C(O)c2ccccn2)C1 [Example 150, (S)-[cis-1-(3,4-dichlorophenyl)-3-methoxycyclobutyl](pyridin-2-yl)methanol] | 1.1 to 5 | 42 | <0.01 | – | –
COC1CC(c2ccc(Cl)c(Cl)c2)([C@H](O)c2ccccn2)C1 (stereo partly drawn) [Example 151, (S)-[1-(3,4-dichlorophenyl)-3-methoxycyclobutyl](pyridin-2-yl)methanol] | 1.1 to 5 | 32 | <0.01 | – | –
OC(c1ccccn1)C1(c2ccc(C(F)(F)F)cc2)CNC1 (stereo not drawn) [Example 152, pyridin-2-yl{3-[4-(trifluoromethyl)phenyl]azetidin-3-yl}methanol] | 5.1 to 20 | >85 | >85 | – | –
CC(C)(C)OC(=O)N1CC(c2ccc(C(F)(F)F)cc2)(C(O)c2ccccn2)C1 (stereo not drawn) [Example 153, tert-butyl 3-[hydroxy(pyridin-2-yl)methyl]-3-[4-(trifluoromethyl)phenyl]-azetidine-1-carboxylate] | 5.1 to 20 | 49 | 21 | – | –
O[C@H](c1ccccn1)C1(c2ccc(C(F)(F)F)cc2)CC(F)(F)C1 [Example 154, (S)-{3,3-difluoro-1-[4-(trifluoromethyl)phenyl]cyclobutyl}(pyridin-2-yl)-methanol] | 0.05 to 0.5 | 56 | 78 | – | –
CN1CC(c2ccc(C(F)(F)F)cc2)(C(O)c2ccccn2)C1 (stereo not drawn) [Example 155, {1-methyl-3-[4-(trifluoromethyl)phenyl]azetidin-3-yl}(pyridin-2-yl)methanol] | 5.1 to 20 | >85 | 76 | – | –
O[C@@H](c1ccccn1)C1(c2ccc(OC(F)(F)F)cc2)CC(F)(F)C1 [Example 159, (R)-{3,3-difluoro-1-[4-(trifluoromethoxy)phenyl]cyclobutyl}(pyridin-2-yl)methanol] | 1.1 to 5 | 45 | 65 | – | –
O=C1CC(c2ccc(C(F)(F)F)cc2)(C(O)c2ccccn2)C1 (stereo not drawn) [Example 160, 3-[hydroxy(pyridin-2-yl)methyl]-3-[4-(trifluoromethyl)phenyl]cyclobutanone] | 5.1 to 20 | >85 | 60 | – | –
OC(c1ccccn1)C1(c2ccc(C(F)(F)F)cc2)CC2(C1)OCCO2 (stereo not drawn) [Example 161, pyridin-2-yl{2-[4-(trifluoromethyl)phenyl]-5,8-dioxaspiro[3.4]oct-2-yl}-methanol] | 1.1 to 5 | 61 | <0.01 | – | –
OC(c1ccccn1)C1(C2CCCCC2)CCC1 (stereo not drawn) [Example 162, (1-cyclohexylcyclobutyl)(pyridin-2-yl)methanol] | 1.1 to 5 | 0.02 | <0.01 | – | –
OC(c1ccccn1)C1(C2CCCC2)CCC1 (stereo not drawn) [Example 163, (1-cyclopentylcyclobutyl)(pyridin-2-yl)methanol] | 1.1 to 5 | 0.11 | <0.01 | – | –
OC1CC(c2ccc(C(F)(F)F)cc2)([C@H](O)c2ccccn2)C1 (stereo partly drawn) [Example 166, 3-[(S)-hydroxy(pyridin-2-yl)methyl]-3-[4-(trifluoromethyl)phenyl]-cyclobutanol] | 5.1 to 20 | >85 | >85 | – | –
OC(C1CCc2cccnc21)C1(c2ccc(Cl)c(Cl)c2)CCC1 (stereo not drawn) [Example 168, (syn)-[1-(3,4-dichlorophenyl)cyclobutyl][6,7-dihydro-5H-cyclopenta[b]-pyridin-7-yl]methanol] | 5.1 to 20 | 5.6 | <0.01 | – | –
